Assay results reported in patent US20080070980A1, “Use Of Beta-Cryptoxanthin” (priority 2004, published 2008).

Assays:
[1] = system: genes involved in protein synthesis; assay: six weeks feeding study in SKH-1 mice, gene expression by GeneChip DNA microarray in kidney, liver, skin and spleen; format: in vivo; details: 1200 ppm in feed with sodium cholate
Procedure: In a six weeks study, β-cryptoxanthin beadlets were mixed into the diet of SKH-1 mice to provide 1200 ppm β-cryptoxanthin in the feed. Further, 0.125 g of sodium cholate per 100 g of feed was added to facilitate the uptake of β-cryptoxanthin. The average β-cryptoxanthin intake was 6.5 mg pro mouse and pro day. After six weeks, the effect of this dose on the overall gene expression was studied. β-cryptoxanthin-mediated gene expression modifications were assessed by GeneChip® DNA microarray technology. Total RNA was extracted from kidney, liver, skin and spleen using the TRIzol® method according to the manufacturer protocol. Reverse Transcription was performed with 10 μg total RNA followed by second strand synthesis of cDNA. The cDNA was then transcribed into multiple cRNA copies and labelled by biotin-coupled nucleotides and fragmented. 10 μg of labelled and fragmented cRNA were hybridized on Affymetrix Mice Genome 430A microarrays as described in the GeneChip® Expression Analysis Technical Manual (Affymetrix, Oxford, UK). For each β-cryptoxanthin-treated tissue, five replicates were performed and compared to six replicates of untreated control mice. […] Subsequently, the microarrays were subjected to laser scanning and the hybridization signals were analyzed with Genedata Expressionist® and Phylosopher® software packages (Genedata, Basel, Switzerland). […]

[2] = system: mouse myoblast cell line C2C12; assay: protein formation in C2C12 muscle cell cultures (BCA protein assay, Pico-green DNA assay); format: cell-based
Procedure: β-Cyptoxanthin enhances protein formation in muscle cell cultures
C2C12 cells from American Type Culture Collection (ATCC, CRL-1772).
The mouse myoblast cell line C2C12 was seeded into 6 cm^2 cell culture dishes at a density 2×10^5 cells/per well. Cells were cultivated in the presence of Dulbecco's […] (DMEM) containing a final concentration of 10% fetal calf serum, 4500 mg/L glucose, 100 IU/ml Penicillin & 100 μg/ml Streptomycin 2 mM L-Glutamine and 1 mM sodium pyruvate. One day post seeding, cells were supplemented with fresh medium containing β-cryptoxanthin with a final concentration of 0.25 μM or 1 μM or vehicle (tetrahydrofurane). β-cryptoxanthin stock solution was prepared in tetrahydrofurane and the solvent concentration in the media was kept constant at 0.14% for all treatment conditions. Cultivation in medium containing β-cryptoxanthin followed up for a total of 7 consecutive days. The medium was changed every second day. On each day, cells from one well per treatment group were scraped into 0.4 ml of a lysis buffer consisting of 20 mM Tris pH 7.5, NaCl 150 mM, EDTA 1 mM, Nonidet 1%, proteinase inhibitors (Roche Molecular Systems, Mannheim Germany) and sonicated.
Aliquots of 10 μl of this solution were used for total protein, and 2 μl for total DNA analysis. After centrifugation for 5 min at 10000 g, supernatants were used for protein and DNA analysis in the soluble fraction.
Protein was determined using the BCA Protein Assay Reagent (Pierce, Rockford, USA). The Pico-green Assay (Molecular Probes, Leiden, The Netherlands) was used for analysis of DNA content.
The amount of protein was calculated as μg/well or in relation to the amount of cells present in the well, as indirectly determined by the amount of DNA/well.

[3] = 0.25 μM, 1 day in culture, C2C12
[4] = 0.25 μM, 2 days in culture, C2C12
[5] = 0.25 μM, 3 days in culture, C2C12
[6] = 0.25 μM, 4 days in culture, C2C12
[7] = 0.25 μM, 5 days in culture, C2C12
[8] = 0.25 μM, 6 days in culture, C2C12
[9] = 0.25 μM, 7 days in culture, C2C12

CC1=C(/C=C/C(C)=C/C=C/C(C)=C/C=C/C=C(C)/C=C/C=C(C)/C=C/C2=C(C)C[C@@H](O)CC2(C)C)C(C)(C)CCC1 [β-cryptoxanthin]
expression of genes involved in protein synthesis in skin, liver, kidney and spleen [1]: up-regulated | soluble protein μg/well [2, 3]: 536 μg/well | total protein μg/well [2, 3]: 703.6 μg/well | μg soluble protein/μg DNA [2, 3]: 227 μg soluble protein/μg DNA | soluble protein μg/well [2, 4]: 592 μg/well | total protein μg/well [2, 4]: 753.6 μg/well | μg soluble protein/μg DNA [2, 4]: 244 μg soluble protein/μg DNA | soluble protein μg/well [2, 5]: 626 μg/well | total protein μg/well [2, 5]: 771.2 μg/well | μg soluble protein/μg DNA [2, 5]: 274 μg soluble protein/μg DNA | soluble protein μg/well [2, 6]: 915 μg/well | total protein μg/well [2, 6]: 1136 μg/well | μg soluble protein/μg DNA [2, 6]: 406 μg soluble protein/μg DNA | soluble protein μg/well [2, 7]: 1091 μg/well | total protein μg/well [2, 7]: 1314.4 μg/well | μg soluble protein/μg DNA [2, 7]: 505 μg soluble protein/μg DNA | soluble protein μg/well [2, 8]: 1267 μg/well | total protein μg/well [2, 8]: 1411.2 μg/well | μg soluble protein/μg DNA [2, 8]: 713 μg soluble protein/μg DNA | soluble protein μg/well [2, 9]: 1284 μg/well | total protein μg/well [2, 9]: 1257.2 μg/well | μg soluble protein/μg DNA [2, 9]: 693 μg soluble protein/μg DNA | change in soluble protein ([2]; 0.25 μM, C2C12 (Table 3)): an increase in soluble protein | change in specific amount of protein/μg DNA ([2]; 0.25 μM, C2C12 (Table 4)): an increase in the specific amount of protein/μg DNA | increase in total protein ([2]; 0.25 μM, C2C12, versus vehicle (Table 2)): approx. 1.4 fold | soluble protein μg/well ([2]; 1 μM, 1 day in culture, C2C12): 574 μg/well | total protein μg/well ([2]; 1 μM, 1 day in culture, C2C12): 750 μg/well | μg soluble protein/μg DNA ([2]; 1 μM, 1 day in culture, C2C12): 246 μg soluble protein/μg DNA | soluble protein μg/well ([2]; 1 μM, 2 days in culture, C2C12): 547 μg/well | total protein μg/well ([2]; 1 μM, 2 days in culture, C2C12): 757.2 μg/well | μg soluble protein/μg DNA ([2]; 1 μM, 2 days in culture, C2C12): 231 μg soluble protein/μg DNA | soluble protein μg/well ([2]; 1 μM, 3 days in culture, C2C12): 609 μg/well | total protein μg/well ([2]; 1 μM, 3 days in culture, C2C12): 750 μg/well | μg soluble protein/μg DNA ([2]; 1 μM, 3 days in culture, C2C12): 265 μg soluble protein/μg DNA | soluble protein μg/well ([2]; 1 μM, 4 days in culture, C2C12): 857 μg/well | μg soluble protein/μg DNA ([2]; 1 μM, 4 days in culture, C2C12): 382 μg soluble protein/μg DNA | soluble protein μg/well ([2]; 1 μM, 5 days in culture, C2C12): 1126 μg/well | total protein μg/well ([2]; 1 μM, 5 days in culture, C2C12): 1236 μg/well | μg soluble protein/μg DNA ([2]; 1 μM, 5 days in culture, C2C12): 539 μg soluble protein/μg DNA | soluble protein μg/well ([2]; 1 μM, 6 days in culture, C2C12): 1146 μg/well | total protein μg/well ([2]; 1 μM, 6 days in culture, C2C12): 1232.4 μg/well | μg soluble protein/μg DNA ([2]; 1 μM, 6 days in culture, C2C12): 624 μg soluble protein/μg DNA | soluble protein μg/well ([2]; 1 μM, 7 days in culture, C2C12): 1118 μg/well | total protein μg/well ([2]; 1 μM, 7 days in culture, C2C12): 1193.2 μg/well | μg soluble protein/μg DNA ([2]; 1 μM, 7 days in culture, C2C12): 644 μg soluble protein/μg DNA | effect on protein formation at higher concentration ([2]; 1 μM, C2C12): plateaued
